Experimental data published in patent US11083720B2, “Indazole inhibitors of fructokinase (KHK) and methods of use in treating KHK-mediated disorders or diseases” (REGENTS OF THE UNIVERSITY OF COLORADO, A BODY CORPORATE, priority 2017, dated 2021).
pIC50: −log10 of the molar value.

What was measured:
[1] = molecular target: KHK-C (Homo sapiens (Human), UniProt P50053); assay: 3-step coupled-enzyme KHK assay (KHK, PK, LDH; NADH disappearance); assay type: biochemical; conditions: recombinant KHK-C, 1 mM fructose, A340 at 37° C.
KHK-C, sequence (P50053 whole entry, the tested form may be a part): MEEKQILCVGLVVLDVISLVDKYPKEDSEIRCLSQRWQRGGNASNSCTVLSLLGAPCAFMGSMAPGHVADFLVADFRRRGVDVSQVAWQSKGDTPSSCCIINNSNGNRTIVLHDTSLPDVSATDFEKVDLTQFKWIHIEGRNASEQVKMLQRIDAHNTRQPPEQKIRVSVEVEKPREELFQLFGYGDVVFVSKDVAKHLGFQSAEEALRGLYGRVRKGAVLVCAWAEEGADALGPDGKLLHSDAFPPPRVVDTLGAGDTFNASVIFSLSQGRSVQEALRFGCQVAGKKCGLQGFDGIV
Description: Specific high-throughput screening assays were developed for KHK-C and KHK-A using recombinant proteins. Purified human recombinant KHK-C and KHK-A were produced using the Bio-Rad Profinity eXact Fusion-Tag System and Profinia protein purification instrument. The assays consist of a 3-step, coupled-enzyme process involving fructokinase (KHK), pyruvate kinase (PK) and lactate dehydrogenase (LDH). ^1,2 The disappearance of NADH is measured kinetically by A340 at 37° C. The enzymatic assay was carried out in a total reaction volume of 200 ul containing 50 mM PIPES, 6 mM MgCl2, 100 mM KCl, 100 uM-5 mM ATP, 2 mM phosphoenolpyruvate, 0.3 mM NADH, 15 U of pyruvate kinase, 15 U of lactate dehydrogenase, and 75-1000 ng KHKC. 1 mM fructose was added to the reactions, except for the no fructose controls which utilized water. The high-throughput assay was used to identify inhibitors that have an IC50 value <5 μM for KHK-C.^5 The '559 pub also sets forth a KHK assay for testing inhibition activity of potential KHK inhibitors.

[2] = system: aldoB−/− KO mice; assay: Fructose-induced hypoglycemia in Aldolase B Knockout Mice; assay type: in vivo; conditions: 25 mg/kg IP 30 min before and repeated at oral fructose gavage (1.5 g/kg), glucose over 90 minutes
From the text: Example 12 describes fructokinase inhibition results and fructose-induce hypoglycemia prevention results obtained from in vivo assay in Aldolase B Knockout Mice. Hereditary Fructose intolerance is a rare genetic disease due to deficiency of aldolase B that is associated with over activation of KHK-C. One of the key features in these individuals is the development of acute hypoglycemia following exposure to fructose ingestion due to rapid uptake of glucose into the liver with the formation of glycogen. Recently, an aldolase-B KO (aldoB^−/−) mouse that has the clinical features of HFI in humans was developed. These mice develop immediate dose-dependent hypoglycemia in response to fructose, but also develop fatty liver within days of low grade fructose feeding.
The procedure used in Example 12 consisted of first fasting animals for six hours, followed by the administration of fructose by oral gavage (45 mg fructose, equivalent to 1.5 g/kg body weight) or vehicle (water) to mice and following serum glucose levels over 90 minutes by measuring glucose with a glucometer from tail snip bleeds. With vehicle administration serum glucose stays normal, but when fructose is administered to aldolase B knockout mice a progressive fall in serum glucose occurs, as noted by the percent (%) of the baseline level. […]

Row | pIC50 [1] | pIC50 ([1]; heading: IC50 Result) | SMILES | hypoglycemic response to fructose (serum glucose, % of baseline) [2]
1 | 5.92 |  | Cc1cccc(-n2ncc3ccc(NC(=O)C4CCN4)cc32)c1 (stereo not shown) [Compound C-72] | 
2 | 6.24 |  | O=C(NC1CNC1)c1ccc2cnn(-c3ccccc3)c2c1 [Compound C-34, N-(azetidin-3-yl)-1-phenyl-1H-indazole-6-carboxamide] | 
3 | 6.15 |  | Nc1cc(-c2ccc3c(C4CC4)nn(-c4ccccc4)c3c2)ccn1 [Compound C-28, 4-(3-cyclopropyl-1-phenyl-1H-indazol-6-yl)pyridin-2-amine] | 
4 | 6.10 |  | Cc1cccc(-n2ncc3ccc(C(=O)NC4CCNCC4)cc32)c1 [Compound C-32, N-(piperidin-4-yl)-1-(m-tolyl)-1H-indazole-6-carboxamide] | 
5 | 5.64 |  | O=C(NC1CCNCC1)c1ccc2cnn(-c3ccccc3)c2c1 [Compound C-26, 1-phenyl-N-(piperidin-4-yl)-1H-indazole-6-carboxamide] | 
6 |  | 5.93 | Nc1cc(-c2ccc3cnn(-c4ccccc4)c3c2)ccn1 [Compound C-1, 4-(1-phenyl-1H-indazol-6-yl)pyridin-2-amine] | 
7 | 6.29 |  | Cc1cccc(-n2ncc3ccc(NC(=O)C4CNC4)cc32)c1 [Compound C-25, N-(1-(m-tolyl)-1H-indazol-6-yl)azetidine-3-carboxamide] | hypoglycemic response was prevented
8 | 6.55 |  | Cc1cccc(-n2ncc3ccc(-c4ccnc(N)c4)cc32)c1 [Compound C-5, 4-(1-(m-tolyl)-1H-indazol-6-yl)pyridin-2-amine] | 
9 | 5.64 |  | Cc1cccc(-n2ncc3ccc(C(=O)NC4CNC4)cc32)c1 [Compound C-33, N-(azetidin-3-yl)-1-(m-tolyl)-1H-indazole-6-carboxamide] | 
